Assay results as given in the supplement of paper PMC10307832.

What was measured:
Assay in all cases: relative viability (nuclei count vs DMSO), 5 days (fraction); higher = more cells survive
IPA-3 + Trametinib = compound: C1=CC=C2C(=C1)C=CC(=C2SSC3=C(C=CC4=CC=CC=C43)O)O [IPA-3] + CC(=O)Nc1cccc(-n2c(=O)n(C3CC3)c(=O)c3c(Nc4ccc(I)cc4F)n(C)c(=O)c(C)c32)c1 [Trametinib] (partner 0.02 µM)
In short: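 Dosing by pin tool came one day after lung cancer cell lines were seeded in 1536-well plates, using either one drug or a fixed anchor-drug dose plus five library-drug doses (not always all listed) in √10 steps. After 5 days, nuclei were counted on 4× images. Relative viability is treated-well nuclei count divided by vehicle-well nuclei count, and values are medians of duplicate plates.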

IPA-3 = compound: C1=CC=C2C(=C1)C=CC(=C2SSC3=C(C=CC4=CC=CC=C43)O)O [IPA-3]
In short: (§1)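 Only plates meeting two conditions passed: control CV below 25% and at least one doubling. Lung cancer cell lines, kept overnight at 37 °C in 1536-well plates, were pinned with five library-drug doses (not always all listed) √10 apart on vehicle-anchored plates and grown 5 days without medium change. A one-step fix, permeabilisation and Hoechst stain preceded 4× imaging and MetaXpress nuclear counting. Viability equals treated-well nuclei divided by vehicle-well nuclei, as the median over plates.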

RAF265 = compound: Cn1c(Nc2ccc(C(F)(F)F)cc2)nc2cc(Oc3ccnc(-c4ncc(C(F)(F)F)[nH]4)c3)ccc21 [RAF265]
In short: as §1

Doramapimod = compound: Cc1ccc(-n2nc(C(C)(C)C)cc2NC(=O)Nc2ccc(OCCN3CCOCC3)c3ccccc23)cc1 [Doramapimod]
In short: as §1

Cell Line	relative viability (IPA-3 + Trametinib; first compound 0.2 µM)	relative viability (IPA-3 + Trametinib; first compound 0.6325 µM)	relative viability (IPA-3 + Trametinib; first compound 2 µM)	relative viability (IPA-3 + Trametinib; first compound 6.325 µM)	relative viability (IPA-3 + Trametinib; first compound 20 µM)	relative viability (IPA-3; 0.2 µM)	relative viability (IPA-3; 0.6325 µM)	relative viability (IPA-3; 2 µM)	relative viability (IPA-3; 6.325 µM)	relative viability (IPA-3; 20 µM)	relative viability (RAF265; 0.01 µM)	relative viability (RAF265; 0.03162 µM)	relative viability (RAF265; 0.1 µM)	relative viability (RAF265; 0.3162 µM)	relative viability (RAF265; 1 µM)	relative viability (Doramapimod; 0.02 µM)	relative viability (Doramapimod; 0.06325 µM)	relative viability (Doramapimod; 0.2 µM)	relative viability (Doramapimod; 0.6325 µM)	relative viability (Doramapimod; 2 µM)
NCI-H838	0.8	0.519	0.352	0.478	0.517	1.08	0.942	0.972	0.969	1.1	0.981	1	0.973	0.93	0.773	0.993	1.02	1.06	1.05	0.949
NCI-H1666	0.902	0.855	0.886	0.924	0.884	1.15	0.978	1.02	1.08	1.12	1.07	1.01	1.01	1.01	0.795	1.06	1.03	1	1.11	1.01
NCI-H1944	0.436	0.433	0.401	0.42	0.415	1.05	0.897	0.953	1.11	0.955	1.06	1.13	0.972	0.755	0.667	0.891	0.994	0.935	1.19	0.878
NCI-H2023	0.735	0.453	0.659	0.612	0.584	1.37	0.899	1.02	1.1	1.06	0.988	0.988	1.13	0.762	0.808	0.928	0.975	0.998	1.19	0.906
NCI-H1755	0.764	0.797	0.739	0.739	0.753	1.08	0.922	1.04	1.01	1.12	1.1	1.01	0.984	0.889	0.638	0.966	0.958	1.03	0.988	0.997
NCI-H23	0.379	0.379	0.342	0.383	0.443	1.08	0.944	0.895	0.917	0.923	0.966	0.847	0.906	0.416	0.41	0.966	1.04	1.06	0.864	0.946
201T	0.73	0.679	0.714	0.744	0.786	0.998	0.975	0.958	0.993	1.09	1.04	0.99	1.02	0.977	0.992	1	1.02	0.975	1.15	0.957
NCI-H1734	0.661	0.628	0.707	0.618	0.72	1.22	1	0.972	0.992	0.908	1.05	0.832	0.87	0.738	0.521	0.949	0.855	0.868	1.02	0.769
NCI-H520	1.01	0.654		0.685	0.528	1.07	0.888	0.916	1.03	0.929	1.11	0.869	1.03	1.02	0.614	0.943	0.933	0.941	0.88	0.868
NCI-H1650	0.996	0.558	0.579	0.647	0.545	1.13	0.787	0.931	1.01	1	1.09	0.904	1.11	0.75	0.765	0.998	0.99	1.17	1.2	0.966
NCI-H1355	0.462	0.476	0.428	0.423	0.443	1.11	0.98	0.988	0.965	0.98	1	0.943	0.895	0.72	0.441	1.02	0.984	0.939	1.03	0.86
NCI-H1915	0.301	0.271	0.286	0.295	0.318	1.1	0.997	0.989	0.96	1.01	0.987	0.915	0.757	0.489	0.3	0.986	0.994	1.04	0.99	0.885
BEN	1.05	1.04	1.15	1.13	1.16	0.982	0.951	1.07	0.943	1.15	0.968	1.11	1.11	0.95	0.907	0.874	0.922	1	0.82	0.884
NCI-H3122	0.294	0.227	0.262	0.255	0.216	1.02	0.98	0.981	1.04	0.999	1.02	1.1	1.05	0.885	0.943	0.995	1	0.995	0.989	1
SK-MES-1	0.568	0.528	0.618	0.639	0.659	1.08	0.97	1.07	0.923	1.02	1.03	0.805	0.634	0.441	0.283	1.01	0.934	0.95	1.05	0.926
HOP-62	0.408	0.349	0.414	0.348	0.382	1.08	0.925	0.986	1	1.09	1.12	0.989	0.952	1	0.834	1.02	1.06	1.08	0.931	0.975
